Measurements from patent US20090275583A1, “ANTIVIRAL COMPOUNDS AND USE THEREOF” (Myriad Genetics, Incorporated, priority 2006, published 2009).

Legend:
[1] = system: HIV-1 laboratory strain, NL4-3; experiment: MT-4 cytoprotection assay; type: cell-based; settings: Human immunodeficiency virus 1, NL43, MT4, 96 h; MT-4 cells, four days incubation, WST-1 readout; read-out: MT4 EC50
Outline: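 MT-4 cells mock- or batch-infected with NL4-3 (MOI 0.0005) for 2 h, washed, then cultured 4 days with increasing compound concentrations. Viability read by WST-1 tetrazolium reduction: cytoprotection in infected cells, toxicity in mock-infected cells.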

HIV-1NL4-3 = experiment: P4-MAGI assay; type: cell-based; settings: Human immunodeficiency virus 1, 24 h, P4 cells, 24 hour incubation, β-galactosidase expression; read-out: P4-MAGI IC50
Outline: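 HeLa-derived CD4+ P4 cells carrying an LTR-driven lacZ were infected with HIV-1NL4-3 at MOI 1 with DEAE-Dextran, then compound added in increasing concentrations right after virus; infection reported as Tat-induced β-galactosidase. TC50 measured by WST-1 in mock-infected cells.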

| Structure (SMILES) | EC50 [1] [nM] | IC50 (HIV-1NL4-3) [nM] |
| --- | --- | --- |
| C=C(C)[C@@H]1CC[C@]2(C(=O)NCCc3cccc(C(=O)NCc4ccc(C(=O)N[C@@H](C(=O)O)[C@H](C)O)cc4)c3)CC[C@]3(C)C(CCC4[C@@]5(C)CC[C@H](O)C(C)(C)C5CC[C@]43C)C12 (stereo partly shown) [Example 160] | 39 | 15 |
| C=C(C)[C@@H]1CC[C@]2(C(=O)NCCc3cccc(C(=O)NCc4ccc(C(=O)N[C@@H](C(=O)OC)[C@H](C)O)cc4)c3)CC[C@]3(C)C(CCC4[C@@]5(C)CC[C@H](O)C(C)(C)C5CC[C@]43C)C12 (stereo partly shown) [Example 161] | 15 | 15 |
| C=C(C)[C@@H]1CC[C@]2(C(=O)NCCc3cccc(C(=O)NCc4ccc(C(=O)N[C@H](Cc5ccc(O)cc5)C(=O)O)cc4)c3)CC[C@]3(C)C(CCC4[C@@]5(C)CC[C@H](O)C(C)(C)C5CC[C@]43C)C12 (stereo partly shown) [Example 164] | 7 | 7 |
| C=C(C)[C@@H]1CC[C@]2(C(=O)NCCc3cccc(C(=O)NCc4ccc(C(=O)N[C@H](Cc5ccc(O)cc5)C(=O)OC)cc4)c3)CC[C@]3(C)C(CCC4[C@@]5(C)CC[C@H](O)C(C)(C)C5CC[C@]43C)C12 (stereo partly shown) [Example 165] | 20 | 13 |
| C=C(C)[C@@H]1CC[C@]2(C(=O)NCCc3cccc(C(=O)NCc4ccc(C(=O)N[C@H](Cc5cc6ccccc6[nH]5)C(=O)O)cc4)c3)CC[C@]3(C)C(CCC4[C@@]5(C)CC[C@H](O)C(C)(C)C5CC[C@]43C)C12 (stereo partly shown) [Example 166] | 13 | 22 |
| C=C(C)[C@@H]1CC[C@]2(C(=O)NCCc3cccc(C(=O)NCc4ccc(C(=O)N[C@H](Cc5cc6ccccc6[nH]5)C(=O)OC)cc4)c3)CC[C@]3(C)C(CCC4[C@@]5(C)CC[C@H](O)C(C)(C)C5CC[C@]43C)C12 (stereo partly shown) [Example 167] | 19 | 22 |
| C=C(C)[C@@H]1CC[C@]2(C(=O)NCCc3cccc(C(=O)NCc4ccc(C(=O)N[C@@H](C(=O)O)C(C)C)cc4)c3)CC[C@]3(C)C(CCC4[C@@]5(C)CC[C@H](O)C(C)(C)C5CC[C@]43C)C12 (stereo partly shown) [Example 168] | 6 | 14 |
| C=C(C)[C@@H]1CC[C@]2(C(=O)NCCc3cccc(C(=O)NCc4ccc(C(=O)N[C@@H](C(=O)OC)C(C)C)cc4)c3)CC[C@]3(C)C(CCC4[C@@]5(C)CC[C@H](O)C(C)(C)C5CC[C@]43C)C12 (stereo partly shown) [Example 169] | 9 | 20 |
| C=C(C)[C@@H]1CC[C@]2(C(=O)NCCc3cccc(C(=O)NCc4ccc(C(=O)N[C@H](Cc5c[nH]cn5)C(=O)OC)cc4)c3)CC[C@]3(C)C(CCC4[C@@]5(C)CC[C@H](O)C(C)(C)C5CC[C@]43C)C12 (stereo partly shown) [Example 170] | 5 | 10 |
| C=C(C)[C@@H]1CC[C@]2(C(=O)NCCc3cccc(C(=O)NCc4ccc(C(=O)NCCC5CCCN5C)cc4)c3)CC[C@]3(C)C(CCC4[C@@]5(C)CC[C@H](O)C(C)(C)C5CC[C@]43C)C12 (stereo partly shown) [Example 171] | 11 | 50 |
| C=C(C)[C@@H]1CC[C@]2(C(=O)NCCc3cccc(C(=O)NCc4ccc(C(=O)NCCN5CCCCC5)cc4)c3)CC[C@]3(C)C(CCC4[C@@]5(C)CC[C@H](O)C(C)(C)C5CC[C@]43C)C12 (stereo partly shown) [Example 172] | 14 | 93 |
| C=C(C)[C@@H]1CC[C@]2(C(=O)NCCc3cccc(C(=O)NCc4ccc(C(=O)NCCN5CCC(O)CC5)cc4)c3)CC[C@]3(C)C(CCC4[C@@]5(C)CC[C@H](O)C(C)(C)C5CC[C@]43C)C12 (stereo partly shown) [Example 173] | 2 | 28 |
| C=C(C)[C@@H]1CC[C@]2(C(=O)NCCc3cccc(C(=O)NCc4ccc(C(=O)NCCN5CCOCC5)cn4)c3)CC[C@]3(C)C(CCC4[C@@]5(C)CC[C@H](O)C(C)(C)C5CC[C@]43C)C12 (stereo partly shown) [Example 174] | 7 | 6 |
| C=C(C)[C@@H]1CC[C@]2(C(=O)NCCc3cccc(C(=O)NCc4ccc(C(=O)N[C@H](CO)C(=O)OC)cc4)c3)CC[C@]3(C)C(CCC4[C@@]5(C)CC[C@H](O)C(C)(C)C5CC[C@]43C)C12 (stereo partly shown) [Example 175] | 4 | 13 |
| C=C(C)[C@@H]1CC[C@]2(C(=O)NCCc3cccc(C(=O)NCc4ccc(C(=O)N[C@@H](C(=O)O)[C@@H](C)N5CCOCC5)cc4)c3)CC[C@]3(C)C(CCC4[C@@]5(C)CC[C@H](O)C(C)(C)C5CC[C@]43C)C12 (stereo partly shown) [Example 176] | 57 | 72 |
| C=C(C)[C@@H]1CC[C@]2(C(=O)NCCc3cccc(C(=O)NCc4ccc(C(=O)N[C@@H](C(=O)O)[C@H](C)N5CCN(C)CC5)cc4)c3)CC[C@]3(C)C(CCC4[C@@]5(C)CC[C@H](O)C(C)(C)C5CC[C@]43C)C12 (stereo partly shown) [Example 177] | 92 | 8 |
| C=C(C)[C@@H]1CC[C@]2(C(=O)NCCc3cccc(C(=O)NCc4ccc(C(=O)N5CC(O)C[C@@H]5C(=O)O)cc4)c3)CC[C@]3(C)C(CCC4[C@@]5(C)CC[C@H](O)C(C)(C)C5CC[C@]43C)C12 (stereo partly shown) [Example 178] | 35 | 21 |
| C=C(C)[C@@H]1CC[C@]2(C(=O)NCCc3cccc(C(=O)NCc4ccc(N(C)C)cc4)c3)CC[C@]3(C)C(CCC4[C@@]5(C)CC[C@H](O)C(C)(C)C5CC[C@]43C)C12 (stereo partly shown) [Example 179] | 98 | 72 |

| Structure (SMILES) | EC50 [1] [nM] | IC50 (HIV-1NL4-3) [nM] |
| --- | --- | --- |
| C=C(C)[C@@H]1CC[C@]2(C(=O)NCCc3cccc(C(=O)NCc4ccc(N)cc4)c3)CC[C@]3(C)C(CCC4[C@@]5(C)CC[C@H](O)C(C)(C)C5CC[C@]43C)C12 (stereo partly shown) [Example 181] | 28 | 19 |
| C=C(C)[C@@H]1CC[C@]2(C(=O)NCCc3cccc(C(=O)NCc4ccc(C(=O)N5CCN(C(=O)OC(C)(C)C)C(C(=O)OC)C5)cc4)c3)CC[C@]3(C)C(CCC4[C@@]5(C)CC[C@H](O)C(C)(C)C5CC[C@]43C)C12 (stereo partly shown) [Example 183] | 108 | 44 |
| C=C(C)[C@@H]1CC[C@]2(C(=O)NCCc3cccc(C(=O)NCc4ccc(C(=O)NC(Cc5c[nH]cn5)C(=O)O)cc4)c3)CC[C@]3(C)C(CCC4[C@@]5(C)CC[C@H](O)C(C)(C)C5CC[C@]43C)C12 (stereo partly shown) [Example 184] | 830 | 104 |
| C=C(C)[C@@H]1CC[C@]2(C(=O)NCCc3cccc(C(=O)NCc4ccc(C(=O)NC(CO)C(=O)O)cc4)c3)CC[C@]3(C)C(CCC4[C@@]5(C)CC[C@H](O)C(C)(C)C5CC[C@]43C)C12 (stereo partly shown) [Example 185] | 36 | 14 |
| C=C(C)[C@@H]1CC[C@]2(C(=O)NCc3cc(C(=O)NCc4cccc(C(=O)O)c4F)ccc3F)CC[C@]3(C)C(CCC4[C@@]5(C)CC[C@H](O)C(C)(C)C5CC[C@]43C)C12 (stereo partly shown) [Example 186] | 830 | 120 |
| C=C(C)[C@@H]1CC[C@]2(C(=O)NCCc3cccc(C(=O)NCc4ccc(C(=O)NCc5ncccc5C(=O)OC)cc4)c3)CC[C@]3(C)C(CCC4[C@@]5(C)CC[C@H](O)C(C)(C)C5CC[C@]43C)C12 (stereo partly shown) [Example 187] | 40 | 8 |
| C=C(C)[C@@H]1CC[C@]2(C(=O)NCCc3cccc(C(=O)NCc4ccc(O)cc4)c3)CC[C@]3(C)C(CCC4[C@@]5(C)CC[C@H](O)C(C)(C)C5CC[C@]43C)C12 (stereo partly shown) [Example 188] | 37 | 12 |
| C=C(C)[C@@H]1CC[C@]2(C(=O)NCCc3cccc(C(=O)NCc4ccc(C(=O)NCc5cccnc5C(=O)OC)cc4)c3)CC[C@]3(C)C(CCC4[C@@]5(C)CC[C@H](O)C(C)(C)C5CC[C@]43C)C12 (stereo partly shown) [Example 189] | 25 | 4 |
| C=C(C)[C@@H]1CC[C@]2(C(=O)NCCc3cccc(C(=O)NCc4ccc(NCCCN5CCOCC5)cc4)c3)CC[C@]3(C)C(CCC4[C@@]5(C)CC[C@H](O)C(C)(C)C5CC[C@]43C)C12 (stereo partly shown) [Example 191] | 16 | 29 |
| C=C(C)[C@@H]1CC[C@]2(C(=O)NCCc3cccc(C(=O)NCc4ccc(C(=O)NCCN5CCNCC5)cc4)c3)CC[C@]3(C)C(CCC4[C@@]5(C)CC[C@H](O)C(C)(C)C5CC[C@]43C)C12 (stereo partly shown) [Example 192] | 7 | 7 |
| C=C(C)[C@@H]1CC[C@]2(C(=O)NCCc3cccc(C(=O)NCc4ccc(C(=O)NCc5cccnc5C(=O)O)cc4)c3)CC[C@]3(C)C(CCC4[C@@]5(C)CC[C@H](O)C(C)(C)C5CC[C@]43C)C12 (stereo partly shown) [Example 193] | 2 | 9 |
| C=C(C)[C@@H]1CC[C@]2(C(=O)NCCc3cccc(C(=O)NCc4ccc(C(=O)N5CCNC(C(=O)O)C5)cc4)c3)CC[C@]3(C)C(CCC4[C@@]5(C)CC[C@H](O)C(C)(C)C5CC[C@]43C)C12 (stereo partly shown) [Example 194] | 16 | 18 |
| C=C(C)[C@@H]1CC[C@]2(C(=O)NCCc3cccc(C(=O)NCc4ccc(C(=O)NCc5ncccc5C(=O)O)cc4)c3)CC[C@]3(C)C(CCC4[C@@]5(C)CC[C@H](O)C(C)(C)C5CC[C@]43C)C12 (stereo partly shown) [Example 195] | 5 | 6 |
| C=C(C)[C@@H]1CC[C@]2(C(=O)NCCc3cccc(C(=O)NCc4ccc(OCCCN5CCOCC5)cc4)c3)CC[C@]3(C)C(CCC4[C@@]5(C)CC[C@H](O)C(C)(C)C5CC[C@]43C)C12 (stereo partly shown) [Example 196] | 12.5 | 13 |
| C=C(C)[C@@H]1CC[C@]2(C(=O)NCCc3cccc(C(=O)NCc4ccccc4O)c3)CC[C@]3(C)C(CCC4[C@@]5(C)CC[C@H](O)C(C)(C)C5CC[C@]43C)C12 (stereo partly shown) [Example 198] | 468 | 57.6 |
| C=C(C)[C@@H]1CC[C@]2(C(=O)NCCc3cccc(C(=O)NCc4ccccc4)c3)CC[C@]3(C)C(CCC4[C@@]5(C)CC[C@H](O)C(C)(C)C5CC[C@]43C)C12 (stereo partly shown) [Example 199] | 297 | 53.2 |
| C=C(C)[C@@H]1CC[C@]2(C(=O)NCCc3cccc(C(=O)NCc4ccccc4OC)c3)CC[C@]3(C)C(CCC4[C@@]5(C)CC[C@H](O)C(C)(C)C5CC[C@]43C)C12 (stereo partly shown) [Example 200] | 759 | 76.3 |
